Patent publication US6028170A, “Analogs of hirudin” (Baxter International Inc., priority 1998, dated 2000)

Target: T1, human alpha-thrombin (Homo sapiens, UniProt P00734)
T1 construct: were reacted with 1.3 picomoles of human alpha-thrombin
Test: Thrombin inhibition, residual amidolysis of chromogenic substrate S-2238
Format: biochemical
Conditions: 0.13-1.3 picomoles hirudin with 1.3 picomoles human alpha-thrombin, 0.05 M Tris-HCl pH 7.4, 0.1% BSA, 1 hour at 22° C.
Description: Aliquots of the supernatants were diluted with the Tris-BSA buffer and the reaction initiated by addition of S-2238. Reaction velocities were monitored at 410 nanometers and used to determine thrombin activity. Moles of hirudin analog and its derivatives in each assay were determined by radioiodinated hirudin analog tracer.

“rHV2 Phe^3 Gln^33 Tyr^35 Lys^47 Asp^63 [H-Tyr]” was tested, and the “Thrombin Inhibition (Specific Activity: % of H-Tyr)” value was 100 % of H-Tyr.
